Experimental data as given in ChEMBL document CHEMBL1681651, “A broad spectrum anticancer nucleoside with selective toxicity against human colon cells in vitro” (2011).

Key:
Assay type in all cases: functional
A498 [1] = assay: Growth inhibition of human A498 cells assessed as cell growth at 1 uM after 48 hrs by SRB assay; conditions: A498, 48 h, read-out: Activity
UO-31 [2] = assay: Growth inhibition of human UO31 cells assessed as cell growth at 1 uM after 48 hrs by SRB assay; conditions: UO-31, 48 h, read-out: Activity
DU-145 [3] = assay: Growth inhibition of human DU145 cells assessed as cell growth at 1 uM after 48 hrs by SRB assay; conditions: DU-145, 48 h, read-out: Activity
T47D = assay: Growth inhibition of human T47D cells assessed as cell growth at 1 uM after 48 hrs by SRB assay; conditions: read-out: Activity
[4] = Growth inhibition of human […] cells assessed as cell growth at 10 uM after 48 hrs by SRB assay; conditions: read-out: Activity
HOP-62 = assay: Growth inhibition of human HOP62 cells assessed as cell growth at 10 uM after 48 hrs by SRB assay; conditions: HOP-62, 48 h, read-out: Activity
SF-295 [5] = assay: Growth inhibition of human SF295 cells assessed as cell growth at 10 uM after 48 hrs by SRB assay; conditions: SF-295, 48 h, read-out: Activity
EKVX [6] = assay: Growth inhibition of human EKVX cells after 48 hrs by […] growth inhibition assay
COLO 205 [7] = assay: Growth inhibition of human COLO205 cells after 48 hrs by […] growth inhibition assay; conditions: COLO 205, 48 h
PC-3 = assay: Growth inhibition of human PC3 cells after 48 hrs by […] growth inhibition assay; conditions: PC-3, 48 h
A549 = assay: Growth inhibition of human A549 cells assessed as cell growth at 0.1 uM after 48 hrs by SRB assay; conditions: A549, 48 h, read-out: Activity
SN12C = assay: Growth inhibition of human SN12C cells assessed as cell growth at 0.1 uM after 48 hrs by SRB assay; conditions: read-out: Activity
UO-31 [8] = assay: Growth inhibition of human UO31 cells assessed as cell growth at 0.1 uM after 48 hrs by SRB assay; conditions: UO-31, 48 h, read-out: Activity
U-251 [9] = assay: Growth inhibition of human U251 cells assessed as cell growth at 10 uM after 48 hrs by SRB assay; conditions: U-251, 48 h, read-out: Activity
OVCAR-5 [10] = assay: Growth inhibition of human OVCAR5 cells assessed as cell growth at 10 uM after 48 hrs by SRB assay; conditions: OVCAR-5, 48 h, read-out: Activity
OVCAR-8 = assay: Growth inhibition of human OVCAR8 cells assessed as cell growth at 10 uM after 48 hrs by SRB assay; conditions: OVCAR-8, 48 h, read-out: Activity
A498 [11] = assay: Growth inhibition of human A498 cells assessed as cell growth at 10 uM after 48 hrs by SRB assay; conditions: A498, 48 h, read-out: Activity
TK-10 = assay: Growth inhibition of human TK10 cells assessed as cell growth at 10 uM after 48 hrs by SRB assay; conditions: TK-10, 48 h, read-out: Activity
DU-145 [12] = assay: Growth inhibition of human DU145 cells assessed as cell growth at 10 uM after 48 hrs by SRB assay; conditions: DU-145, 48 h, read-out: Activity
NCI/ADR-RES = assay: Growth inhibition of human NCI/ADR-RES cells assessed as cell growth at 10 uM after 48 hrs by SRB assay; conditions: read-out: Activity
MDA-MB-231 = assay: Growth inhibition of human MDA-MB-231 cells assessed as cell growth at 10 uM after 48 hrs by SRB assay; conditions: MDA-MB-231, 48 h, read-out: Activity
EKVX [13] = assay: Growth inhibition of human EKVX cells assessed as cell growth at 100 uM after 48 hrs by SRB assay; conditions: read-out: Activity
HCT-116 = assay: Growth inhibition of human HCT116 cells assessed as cell growth at 100 uM after 48 hrs by SRB assay; conditions: HCT-116, 48 h, read-out: Activity
KM12 = assay: Growth inhibition of human KM12 cells assessed as cell growth at 100 uM after 48 hrs by SRB assay; conditions: KM12, 48 h, read-out: Activity
HOP-92 = assay: Growth inhibition of human HOP92 cells assessed as cell growth at 1 mM after 48 hrs by SRB assay; conditions: HOP-92, 48 h, read-out: Activity
COLO 205 [14] = assay: Growth inhibition of human COLO205 cells assessed as cell growth at 1 mM after 48 hrs by SRB assay; conditions: COLO 205, 48 h, read-out: Activity
SF-295 [15] = assay: Growth inhibition of human SF295 cells assessed as cell growth at 1 mM after 48 hrs by SRB assay; conditions: SF-295, 48 h, read-out: Activity
SNB-19 = assay: Growth inhibition of human SNB19 cells assessed as cell growth at 1 mM after 48 hrs by SRB assay; conditions: SNB-19, 48 h, read-out: Activity
M14 = assay: Growth inhibition of human M14 cells assessed as cell growth at 1 mM after 48 hrs by SRB assay; conditions: M14, 48 h, read-out: Activity
RXF 393 = assay: Growth inhibition of human RXF393 cells assessed as cell growth at 1 mM after 48 hrs by SRB assay; conditions: RXF 393, 48 h, read-out: Activity
BT-549 = assay: Growth inhibition of human BT549 cells assessed as cell growth at 1 mM after 48 hrs by SRB assay; conditions: BT-549, 48 h, read-out: Activity
HCT-15 = assay: Growth inhibition of human HCT15 cells assessed as cell growth at 1 uM after 48 hrs by SRB assay; conditions: HCT-15, 48 h, read-out: Activity
SNB-75 = assay: Growth inhibition of human SNB75 cells assessed as cell growth at 1 uM after 48 hrs by SRB assay; conditions: SNB-75, 48 h, read-out: Activity
U-251 [16] = assay: Growth inhibition of human U251 cells assessed as cell growth at 1 uM after 48 hrs by SRB assay; conditions: U-251, 48 h, read-out: Activity
LOX IMVI = assay: Growth inhibition of human LOXIMVI cells assessed as cell growth at 1 uM after 48 hrs by SRB assay; conditions: read-out: Activity
OVCAR-4 = assay: Growth inhibition of human OVCAR4 cells assessed as cell growth at 1 uM after 48 hrs by SRB assay; conditions: OVCAR-4, 48 h, read-out: Activity
OVCAR-5 [17] = assay: Growth inhibition of human OVCAR5 cells assessed as cell growth at 1 uM after 48 hrs by SRB assay; conditions: OVCAR-5, 48 h, read-out: Activity
[18] = read-out: LC50 (the source's name)
[19] = read-out: pLC50 (the source's name) (converted)

SMILES: CCOC(=O)C[C@H]1[C@@H](O[Si](C)(C)C(C)(C)C)[C@H](n2cnc3c(NC(=O)Nc4ccccc4)ncnc32)O[C@@H]1CNC(=O)NC
- growth at 1 µM (A498 [1]): 92%
- growth at 1 µM (UO-31 [2]): 87%
- growth at 1 µM (DU-145 [3]): 123%
- growth at 1 µM (T47D): 89%
- growth at 10 µM [4]: 53%
- growth at 10 µM (HOP-62): 97%
- growth at 10 µM (SF-295 [5]): 88%
- GI50 (EKVX [6]; read-out: GI50): 17.7 µM
- CC50 (EKVX [6]; [18]): > 100 µM
- TGI (EKVX [6]; read-out: TGI): > 100 µM
- GI50 (EKVX [6]; read-out: pGI50 (converted)): 17.8 µM
- CC50 (EKVX [6]; [19]): > 100 µM
- TGI (EKVX [6]; read-out: pTGI (converted)): > 100 µM
- GI50 (COLO 205 [7]; read-out: GI50): 3.84 µM
- CC50 (COLO 205 [7]; [18]): > 100 µM
- TGI (COLO 205 [7]; read-out: TGI): > 100 µM
- GI50 (COLO 205 [7]; read-out: pGI50 (converted)): 3.8 µM
- CC50 (COLO 205 [7]; [19]): > 100 µM
- TGI (COLO 205 [7]; read-out: pTGI (converted)): > 100 µM
- GI50 (PC-3; read-out: GI50): 2.25 µM
- CC50 (PC-3; [18]): 78.4 µM
- TGI (PC-3; read-out: TGI): 48.5 µM
- GI50 (PC-3; read-out: pGI50 (converted)): 2.24 µM
- CC50 (PC-3; [19]): 12.6 µM
- TGI (PC-3; read-out: pTGI (converted)): 4.9 µM
- growth at 0.1 µM (A549): 102%
- growth at 0.1 µM (SN12C): 101%
- growth at 0.1 µM (UO-31 [8]): 87%
- growth at 10 µM (U-251 [9]): 94%
- growth at 10 µM (OVCAR-5 [10]): 95%
- growth at 10 µM (OVCAR-8): 98%
- growth at 10 µM (A498 [11]): 91%
- growth at 10 µM (TK-10): 105%
- growth at 10 µM (DU-145 [12]): 110%
- growth at 10 µM (NCI/ADR-RES): 104%
- growth at 10 µM (MDA-MB-231): 94%
- growth at 100 µM (EKVX [13]): 53%
- growth at 100 µM (HCT-116): 23%
- growth at 100 µM (KM12): 13%
- growth at 1000 µM (HOP-92): -61%
- growth at 1000 µM (COLO 205 [14]): 3%
- growth at 1000 µM (SF-295 [15]): 24%
- growth at 1000 µM (SNB-19): 12%
- growth at 1000 µM (M14): -56%
- growth at 1000 µM (RXF 393): -59%
- growth at 1000 µM (BT-549): 51%
- growth at 1 µM (HCT-15): 96%
- growth at 1 µM (SNB-75): 90%
- growth at 1 µM (U-251 [16]): 95%
- growth at 1 µM (LOX IMVI): 97%
- growth at 1 µM (OVCAR-4): 103%
- growth at 1 µM (OVCAR-5 [17]): 103%

SMILES: CNC(=O)OC[C@H]1O[C@@H](n2cnc3c(NC(=O)Nc4ccccc4)ncnc32)[C@H](O[Si](C)(C)C(C)(C)C)[C@@H]1O[Si](C)(C)C(C)(C)C
- growth at 10 µM [4]: 88.1%
- growth at 10 µM (HOP-62): 104%
- growth at 10 µM (SF-295 [5]): 108%
- growth at 10 µM (U-251 [9]): 86%
- growth at 10 µM (OVCAR-5 [10]): 120%
- growth at 10 µM (OVCAR-8): 88.8%
- growth at 10 µM (A498 [11]): 98.4%
- growth at 10 µM (TK-10): 96%
- growth at 10 µM (DU-145 [12]): 106%
- growth at 10 µM (NCI/ADR-RES): 97.6%
- growth at 10 µM (MDA-MB-231): 110%

SMILES: CNC(=O)NC[C@H]1O[C@@H](n2cnc3c(NC(=O)Nc4ccccc4)ncnc32)[C@H](O[Si](C)(C)C(C)(C)C)[C@@H]1O[Si](C)(C)C(C)(C)C
- growth at 1 µM (A498 [1]): 97%
- growth at 1 µM (UO-31 [2]): 97%
- growth at 1 µM (DU-145 [3]): 107%
- growth at 1 µM (T47D): 105%
- growth at 10 µM [4]: 98%
- growth at 10 µM (HOP-62): 105%
- growth at 10 µM (SF-295 [5]): 111%
- GI50 (EKVX [6]; read-out: GI50): 3.7 µM
- CC50 (EKVX [6]; [18]): > 100 µM
- TGI (EKVX [6]; read-out: TGI): 30.6 µM
- GI50 (EKVX [6]; read-out: pGI50 (converted)): 3.72 µM
- CC50 (EKVX [6]; [19]): > 100 µM
- TGI (EKVX [6]; read-out: pTGI (converted)): 30.9 µM
- GI50 (COLO 205 [7]; read-out: GI50): 1.89 µM
- CC50 (COLO 205 [7]; [18]): 5.98 µM
- TGI (COLO 205 [7]; read-out: TGI): 3.36 µM
- GI50 (COLO 205 [7]; read-out: pGI50 (converted)): 1.91 µM
- CC50 (COLO 205 [7]; [19]): 6.03 µM
- TGI (COLO 205 [7]; read-out: pTGI (converted)): 3.39 µM
- GI50 (PC-3; read-out: GI50): 2.69 µM
- CC50 (PC-3; [18]): > 100 µM
- TGI (PC-3; read-out: TGI): > 1 µM
- GI50 (PC-3; read-out: pGI50 (converted)): 2.69 µM
- CC50 (PC-3; [19]): > 100 µM
- TGI (PC-3; read-out: pTGI (converted)): > 100 µM
- growth at 0.1 µM (A549): 99%
- growth at 0.1 µM (SN12C): 100%
- growth at 0.1 µM (UO-31 [8]): 87%
- growth at 10 µM (U-251 [9]): 93%
- growth at 10 µM (OVCAR-5 [10]): 103%
- growth at 10 µM (OVCAR-8): 106%
- growth at 10 µM (A498 [11]): 90%
- growth at 10 µM (TK-10): 112%
- growth at 10 µM (DU-145 [12]): 109%
- growth at 10 µM (NCI/ADR-RES): 103%
- growth at 10 µM (MDA-MB-231): 106%
- growth at 100 µM (EKVX [13]): 9%
- growth at 100 µM (HCT-116): -59%
- growth at 100 µM (KM12): -66%
- growth at 1000 µM (HOP-92): -50%
- growth at 1000 µM (COLO 205 [14]): -94%
- growth at 1000 µM (SF-295 [15]): -7%
- growth at 1000 µM (SNB-19): 7%
- growth at 1000 µM (M14): -52%
- growth at 1000 µM (RXF 393): -77%
- growth at 1000 µM (BT-549): -36%
- growth at 1 µM (HCT-15): 106%
- growth at 1 µM (SNB-75): 95%
- growth at 1 µM (U-251 [16]): 102%
- growth at 1 µM (LOX IMVI): 101%
- growth at 1 µM (OVCAR-4): 108%
- growth at 1 µM (OVCAR-5 [17]): 99%
